Starred links: 1 amine or outer side, 2 acyl side, 3 side chain; linkers in the order of their positions; H or OH if unused. Non-standard residues stand in square brackets, D forms with d. No end group written: not given here. Hydrazinoacetyl = O=C(CNN[*:1])[*:2]
Test system: molécules de classe II du CMH
Experiment: Quantification of surface expression of MHC class II molecules by flow cytometry (anti-HLA DR-FITC) after 24 h stimulation of cells with peptides or lipopeptides
Format: cell-based, humaine
Conditions: for Moyenne: mean fluorescence of treated COLO 205 cells; for Rapport: ratio of mean fluorescence of treated to untreated COLO 205 cells
Procedure: Les cellules COLO 205 (lignée cellulaire humaine issue d'un carcinome de colon) proviennent de la banque de cellules ATCC (American Type Culture Collection). Elles sont cultivées en milieu RPMI 1640 (Gibco BRL, Courbevoie, France) avec 10% de sérum de veau foetal (SVF) et 5 mM de pyruvate de sodium, et incubées à 37°C en présence de 5% de CO2. Les cellules sont stimulées pendant 24 heures avec différentes concentrations (35, 50 ou 65 µM) de peptides ou de lipopeptides. Les cellules sont ensuite marquées pendant 1 heure à 4°C avec 10 µl d'anticorps de souris anti-HLA DR de classe-II, couplé à la FITC (clone TAL, 1B5, Cymbus Biotechnology Ltd, Hants, Grande-Bretagne) dans 10% de SVF/PBS, puis lavées 3 fois par du SVF/PBS.
L'expression de surface des molécules de classe II du CMH est analysée par cytométrie de flux sur un cytomètre Coulter EPICS II, à raison de 10 000 évènements par échantillon. L'intensité de fluorescence observée est directement proportionnelle à la quantité de molécules de classe II du CMH présente à la surface des cellules. La moyenne de fluorescence observée pour les cellules non traitées et pour les cellules traitées (colonne « Moyenne» dans le tableau II) permet de calculer un rapport entre la moyenne de fluorescence des cellules traitées et la moyenne de fluorescence des cellules non traitées (colonne « Rapport » dans le tableau II).

Substance	Moyenne (35 µM)	Moyenne (50 µM)	Moyenne (65 µM)	Rapport (35 µM)	Rapport (50 µM)	Rapport (65 µM)
palm-NH-NH-CH2CO-PSRENQNAVKIQKLSVVLRREQKHR-VERLAFRNQSLPF-NH2 [peptide 23Sc]	4,72	4,51	5,55	9,16	6,15	7,5
H2N-NH-CH2CO-PSRENQNAVKIQKLSVVLRREQKHRVERLAFRNQSLPF-NH2 ([Hydrazinoacetyl]PSRENQNAVKIQKLSVVLRREQKHRVERLAFRNQSLPF-NH2; N-terminus assumed; SMILES CC[C@H](C)[C@H](NC(=O)[C@H](CCCCN)NC(=O)[C@@H](NC(=O)[C@H](C)NC(=O)[C@H](CC(N)=O)NC(=O)[C@H](CCC(N)=O)NC(=O)[C@H](CC(N)=O)NC(=O)[C@H](CCC(=O)O)NC(=O)[C@H](CCCNC(=N)N)NC(=O)[C@H](CO)NC(=O)[C@@H]1CCCN1C(=O)CNN)C(C)C)C(=O)N[C@@H](CCC(N)=O)C(=O)N[C@@H](CCCCN)C(=O)N[C@@H](CC(C)C)C(=O)N[C@@H](CO)C(=O)N[C@H](C(=O)N[C@H](C(=O)N[C@@H](CC(C)C)C(=O)N[C@@H](CCCNC(=N)N)C(=O)N[C@@H](CCCNC(=N)N)C(=O)N[C@@H](CCC(=O)O)C(=O)N[C@@H](CCC(N)=O)C(=O)N[C@@H](CCCCN)C(=O)N[C@@H](Cc1c[nH]cn1)C(=O)N[C@@H](CCCNC(=N)N)C(=O)N[C@H](C(=O)N[C@@H](CCC(=O)O)C(=O)N[C@@H](CCCNC(=N)N)C(=O)N[C@@H](CC(C)C)C(=O)N[C@@H](C)C(=O)N[C@@H](Cc1ccccc1)C(=O)N[C@@H](CCCNC(=N)N)C(=O)N[C@@H](CC(N)=O)C(=O)N[C@@H](CCC(N)=O)C(=O)N[C@@H](CO)C(=O)N[C@@H](CC(C)C)C(=O)N1CCC[C@H]1C(=O)N[C@@H](Cc1ccccc1)C(N)=O)C(C)C)C(C)C)C(C)C) [peptide 22Sc]	1,36	1,60	1,67	1,8	2,18	2,27

— EP1206482B1, “METHOD FOR COUPLING, IN SOLUTION, A PEPTIDE WITH AT LEAST ANOTHER COMPOUND AND USES THEREOF” (INSTITUT PASTEUR DE LILLE, priority 1999, dated 2001)
